Counter-ions that a name gives are not always drawn.
| Structure (SMILES) | melting point |
| --- | --- |
| O=C(O)C1[C@H](c2ccccc2)c2ccccc2[C@H]1c1ccccc1 (racemic) (as salt: sodium) [Example 21, (1RS, 3RS)-1,3-Diphenylindane-2-carboxylic acid] | 220 to 222 °C (dec.) |
| COc1ccc([C@@H]2c3ccccc3[C@H](c3ccc4c(c3)OCO4)[C@H]2c2nnn[nH]2)cc1 (racemic) (hydrate or solvate) [Example 9, (1RS, 2SR, 3SR)-1-(4-Methoxyphenyl)-3-(3,4-methylenedioxyphenyl)-2-(tetrazol-5-yl)indane] | 155 to 157 °C |
| COc1ccc([C@@H]2c3ccccc3[C@H](c3ccccc3)[C@H]2C(=O)O)cc1 (racemic) [Example 1, (1RS,2RS,3SR)-1-(4-Methoxyphenyl)-3-phenylindane-2-carboxylic acid] | 164 to 166 °C |
| O=C(O)[C@H]1[C@H](c2ccc(F)cc2)c2ccccc2[C@@H]1c1ccc2c(c1)OCO2 (racemic) [Example 4, (1RS, 2SR, 3SR)-1-(4-Fluorophenyl)-3-(3,4-methylenedioxyphenyl)indane-2-carboxylic acid] | 146 to 149 °C |
| COc1cccc([C@@H]2c3ccccc3[C@H](c3ccc4c(c3)OCO4)[C@H]2C(=O)O)c1 (racemic) [Example 5, (1RS, 2SR, 3SR)-1-(3-Methoxyphenyl)-3-(3,4-methylenedioxyphenyl)indane-2-carboxylic acid] | 131 to 133 °C |
| O=C(O)C1[C@H](c2ccc3c(c2)OCO3)c2ccccc2[C@H]1c1ccc2c(c1)OCO2 (racemic) [Example 6, (1RS, 3RS)-1,3-Di-(3,4-methylenedioxyphenyl)-indane-2-carboxylic acid] | 182 to 185 °C |
| O=C(O)[C@H]1[C@H](c2ccc3c(c2)OCO3)c2ccccc2[C@@H]1c1ccccc1 (racemic) [Example 8, (1RS, 2RS, 3SR)-1-(3,4-Methylenedioxyphenyl)-3-phenylindane-2-carboxylic acid] | 186 to 187 °C |
| COc1ccc(C2C(C(=O)O)=C(c3ccccc3)c3ccccc32)cc1 (racemic) [Example 15, (1RS)-1-(4-Methoxyphenyl)-3-phenylindene-2-carboxylic acid] | 191 to 193 °C |
| CCc1ccc([C@@H]2c3ccccc3[C@H](c3ccccc3)[C@H]2C(=O)O)cc1 (racemic) [Example 20, (1RS, 2RS, 3SR)-1-(4-Ethylphenyl)-3-phenylindane-2-carboxylic acid] | 163 to 164 °C |
| COc1ccc([C@H]2c3ccccc3[C@@H](c3ccc(NC(C)=O)cc3)[C@H]2C(=O)O)cc1 (racemic) [Example 23, (1RS, 2RS, 3SR)-1-(4-Acetamidophenyl)-3-(4-methoxyphenyl)indane-2-carboxylic acid] | 231 to 232 °C |
| O=C(O)[C@H]1[C@H](c2ccc(O)cc2)c2ccccc2[C@@H]1c1ccc2c(c1)OCO2 (racemic) [Example 25, (1RS, 2SR, 3SR)-1-(4-Hydroxyphenyl)-3-(3,4-methylenedioxyphenyl)indane-2-carboxylic acid] | 94 to 96 °C |
| COc1ccc([C@H]2c3ccccc3[C@@H](c3ccc(OC)c(OC)c3)[C@@H]2C(=O)O)cc1 (racemic) [Example 26, (1RS, 2RS, 3SR)-1-(3,4-Dimethoxyphenyl)-3-(4-methoxyphenyl)indane-2-carboxylic acid] | 126 to 128 °C |

Next, values leading:

| melting point | Structure (SMILES) |
| --- | --- |
| 178 to 181 °C (dec.) | CCCOc1ccc2c(c1)[C@H](c1ccc(OC)cc1OCC(=O)[O-])[C@@H](C(=O)O[C@@H](C)OC(=O)C(C)(C)OC)[C@@H]2c1ccc2c(c1)OCO2.[Na+] (racemic) |
| 129 to 131 °C | COc1ccc([C@H]2c3cc(OC)ccc3[C@@H](c3ccc4c(c3)OCO4)[C@H]2C(=O)O)cc1 (racemic) [Example 28, (1RS, 2SR, 3SR)-5-Methoxy-3-(4-methoxyphenyl)-1-(3,4-methylenedioxyphenyl)indane-2-carboxylic acid] |
| 188 to 190 °C | CCCOc1ccc2c(c1)[C@@H](c1ccc(OC)cc1OCC(=O)O)[C@@H](C(=O)O)[C@H]2c1cc2c(cc1OC)OCO2 (racemic) [Example 30, (1RS, 2SR, 3SR)-3-(2-Carboxymethoxy-4-methoxyphenyl)-1-(2-methoxy-4,5-methylenedioxyphenyl)-5-(prop-1-yloxy)-indane-2-carboxylic acid] |
| 161 to 163 °C | CCCOc1ccc2c(c1)[C@H](c1ccc(OC)cc1OCOC)[C@@H](C(=O)O)[C@@H]2c1ccc2c(c1)OCO2 (racemic) [Example 31, (1RS, 2SR, 3RS)-3-(4-methoxy-2-methoxymethoxyphenyl)1-(3,4-methylenedioxyphenyl)-5-(prop-1-yloxy)indane-2-carboxylic acid] |
| 179 to 180 °C | CCCOc1ccc2c(c1)[C@H](c1ccccc1OCCC)[C@@H](C(=O)O)[C@@H]2c1ccc2c(c1)OCO2 (racemic) [Example 35, (1RS, 2SR, 3RS)-1-(3,4-Methylenedioxyphenyl)-3-[2-(prop-1-yloxy)phenyl]-5-(prop-1-yloxy)indane-2-carboxylic acid] |
| 97 to 98 °C | CCCOc1ccc2c(c1)[C@H](c1ccccc1O)[C@@H](C(=O)O)[C@@H]2c1ccc2c(c1)OCO2 (racemic) [Example 36, (1RS, 2SR, 3RS)-3-(2-Hydroxyphenyl)-1-(3,4-methylenedioxyphenyl)-5-(prop-1-yloxy)indane-2-carboxylic acid] |
| 169 to 170 °C | CCCOc1ccc2c(c1)[C@H](c1ccccc1OCC(=O)O)[C@@H](C(=O)O)[C@@H]2c1ccc2c(c1)OCO2 (racemic) [Example 37, (1 RS, 2SR, 3RS)-3-(2-Carboxymethoxyphenyl)-1-(3,4-methylenedioxyphenyl)-5-(prop-1-yloxy)indane-2-carboxylic acid] |
| 75 to 79 °C | CCCOc1ccc2c(c1)[C@H](c1ccc(OC)cc1OC(C)C)[C@@H](C(=O)O)[C@@H]2c1ccc2c(c1)OCO2 (racemic) [Example 42, (1RS, 2SR, 3RS)-3-[4-Methoxy-2-(prop-2-yloxy)phenyl]-1-(3,4-methylenedioxyphenyl)-5-(prop-1-yloxy)indane-2-carboxylic acid] |
| 85 to 89 °C | CCCOc1ccc2c(c1)[C@H](c1ccc(OC)cc1OCC(C)C)[C@@H](C(=O)O)[C@@H]2c1ccc2c(c1)OCO2 (racemic) [Example 43, (1RS, 2SR, 3RS)-3-[4-Methoxy-2-(2-methylprop-1-yloxy)phenyl]-1-(3,4-methylenedioxyphenyl)-5-(prop-1-yloxy)indane-2-carboxylic acid] |
| 199 to 201 °C | CCCOc1ccc2c(c1)[C@H](c1ccc(OC)cc1OCC#N)[C@@H](C(=O)O)[C@@H]2c1ccc2c(c1)OCO2 (racemic) [Example 50, (1RS,2SR,3RS)-3-(2-Cyanomethoxy-4-methoxyphenyl)-1-(3,4-methylenedioxyphenyl)-5-(prop-1-yloxy)indane-2-carboxylic acid] |
| 199 to 200 °C | CCCOc1ccc2c(c1)[C@H](c1ccc(OC)cc1-c1ccccc1)[C@@H](C(=O)O)[C@@H]2c1ccc2c(c1)OCO2 (racemic) [Example 56, (1RS, 2SR, 3RS)-3-(4-Methoxy-2-phenylphenyl)-1-(3,4-methylenedioxyphenyl)-5-(prop-1-yloxy)indane-2-carboxylic acid] |
